From ChEMBL document CHEMBL3352328, “Synthesis and biological evaluation of a new series of N-acyldiamines as potential antibacterial and antifungal agents” (2014)
Values after ≈ are worked out from the molar mass of the structure shown. Each block holds one compound with its values, some of them ahead of it. Active and inactive are the calls of the source. The rule behind the calls is not given here.

Columns and labels:
[1] = tested on: Staphylococcus aureus; test: Bactericidal activity against methicillin-resistant Staphylococcus aureus clinical isolate 15 after 24 hrs; format: functional; details: isolate 15, 24 h
[2] = tested on: Staphylococcus aureus; test: Bactericidal activity against methicillin-resistant Staphylococcus aureus clinical isolate 18 after 24 hrs; format: functional; details: isolate 18, 24 h
[3] = tested on: Staphylococcus aureus; test: Bactericidal activity against methicillin-resistant Staphylococcus aureus clinical isolate 4 after 24 hrs; format: functional; details: isolate 4, 24 h
[4] = tested on: Staphylococcus aureus; test: Bactericidal activity against methicillin-resistant Staphylococcus aureus clinical isolate 19 after 24 hrs; format: functional; details: isolate 19, 24 h
[5] = tested on: Staphylococcus aureus; test: Bactericidal activity against methicillin-resistant Staphylococcus aureus clinical isolate 20 after 24 hrs; format: functional; details: isolate 20, 24 h
[6] = tested on: Staphylococcus aureus; test: Bactericidal activity against methicillin-resistant Staphylococcus aureus clinical isolate 14 after 24 hrs; format: functional; details: isolate 14, 24 h
[7] = tested on: Staphylococcus aureus; test: Bactericidal activity against methicillin-resistant Staphylococcus aureus clinical isolate 8 after 24 hrs; format: functional; details: isolate 8, 24 h
[8] = tested on: Staphylococcus aureus; test: Bactericidal activity against methicillin-resistant Staphylococcus aureus clinical isolate 10 after 24 hrs; format: functional; details: isolate 10, 24 h
[9] = tested on: Staphylococcus aureus; test: Bactericidal activity against methicillin-resistant Staphylococcus aureus clinical isolate 11 after 24 hrs; format: functional; details: isolate 11, 24 h
[10] = tested on: Staphylococcus aureus; test: Bactericidal activity against methicillin-resistant Staphylococcus aureus clinical isolate 2 after 24 hrs; format: functional; details: isolate 2, 24 h
[11] = tested on: Staphylococcus aureus; test: Bactericidal activity against methicillin-resistant Staphylococcus aureus clinical isolate 21 after 24 hrs; format: functional; details: isolate 21, 24 h
[12] = tested on: Staphylococcus aureus; test: Bactericidal activity against methicillin-resistant Staphylococcus aureus clinical isolate 1 after 24 hrs; format: functional; details: isolate 1, 24 h
[13] = tested on: Staphylococcus aureus; test: Bactericidal activity against methicillin-resistant Staphylococcus aureus clinical isolate 17 after 24 hrs; format: functional; details: isolate 17, 24 h
[14] = tested on: Staphylococcus aureus; test: Bactericidal activity against methicillin-resistant Staphylococcus aureus clinical isolate 5 after 24 hrs; format: functional; details: isolate 5, 24 h
[15] = tested on: Staphylococcus aureus; test: Bactericidal activity against methicillin-resistant Staphylococcus aureus clinical isolate 6 after 24 hrs; format: functional; details: isolate 6, 24 h
[16] = tested on: Staphylococcus aureus; test: Bactericidal activity against methicillin-resistant Staphylococcus aureus clinical isolate 16 after 24 hrs; format: functional; details: isolate 16, 24 h
[17] = tested on: Staphylococcus aureus; test: Bactericidal activity against methicillin-resistant Staphylococcus aureus clinical isolate 12 after 24 hrs; format: functional; details: isolate 12, 24 h
[18] = tested on: Staphylococcus aureus; test: Bactericidal activity against methicillin-resistant Staphylococcus aureus clinical isolate 13 after 24 hrs; format: functional; details: isolate 13, 24 h
[19] = tested on: Staphylococcus aureus; test: Bactericidal activity against methicillin-resistant Staphylococcus aureus clinical isolate 7 after 24 hrs; format: functional; details: isolate 7, 24 h
[20] = tested on: Staphylococcus aureus; test: Bactericidal activity against methicillin-resistant Staphylococcus aureus clinical isolate 9 after 24 hrs; format: functional; details: isolate 9, 24 h
[21] = tested on: Staphylococcus aureus; test: Bactericidal activity against methicillin-resistant Staphylococcus aureus clinical isolate 3 after 24 hrs; format: functional; details: isolate 3, 24 h
[22] = tested on: Staphylococcus aureus; test: Antimicrobial activity against Staphylococcus aureus ATCC 29213 by broth dilution method; format: functional
[23] = tested on: Pseudomonas aeruginosa; test: Antimicrobial activity against Pseudomonas aeruginosa ATCC 27853 by broth dilution method; format: functional
[24] = tested on: Escherichia coli; test: Antimicrobial activity against Escherichia coli ATCC 11229 by broth dilution method; format: functional
[25] = tested on: Staphylococcus epidermidis; test: Antimicrobial activity against Staphylococcus epidermidis ATCC 12228 by broth dilution method; format: functional
[26] = tested on: Candida tropicalis; test: Antifungal activity against Candida tropicalis ATCC 750 by broth microdilution method; format: functional
[27] = tested on: Nakaseomyces glabratus; test: Antifungal activity against Candida glabrata ATCC 90030 by broth microdilution method; format: functional
[28] = tested on: Pseudomonas aeruginosa; test: Bacteriostatic activity against Pseudomonas aeruginosa ATCC 27853 after 24 hrs; format: functional, organism-based
[29] = tested on: Candida parapsilosis; test: Antifungal activity against Candida parapsilosis ATCC 22019 by broth microdilution method; format: functional; details: Lodderomyces parapsilosis
[30] = tested on: Staphylococcus epidermidis; test: Bacteriostatic activity against Staphylococcus epidermidis ATCC 12228 after 24 hrs; format: functional, organism-based
[31] = tested on: Candida albicans; test: Antifungal activity against Candida albicans ATCC 18804 by broth microdilution method; format: functional
[32] = tested on: Staphylococcus aureus; test: Bacteriostatic activity against Staphylococcus aureus ATCC 29213 after 24 hrs; format: functional, organism-based
[33] = tested on: Staphylococcus epidermidis; test: Bactericidal activity against Staphylococcus epidermidis ATCC 12228 after 24 hrs; format: functional; details: ATCC 12228, 24 h
[34] = tested on: Escherichia coli; test: Bacteriostatic activity against Escherichia coli ATCC 11229 after 24 hrs; format: functional, organism-based
[35] = tested on: Escherichia coli; test: Bactericidal activity against Escherichia coli ATCC 11229 after 24 hrs; format: functional; details: ATCC 11229, 24 h
[36] = tested on: Staphylococcus aureus; test: Bactericidal activity against methicillin-resistant Staphylococcus aureus clinical isolate after 24 hrs; format: functional
[37] = tested on: Staphylococcus aureus; test: Bactericidal activity against Staphylococcus aureus ATCC 29213 after 24 hrs; format: functional; details: ATCC 29213, 24 h

Compound: CN[C@H](CC(C)C)C(=O)N[C@H]1C(=O)N[C@@H](CC(N)=O)C(=O)N[C@H]2C(=O)N[C@H]3C(=O)N[C@H](C(=O)N[C@H](C(=O)O)c4cc(O)cc(O)c4-c4cc3ccc4O)[C@H](O)c3ccc(c(Cl)c3)Oc3cc2cc(c3O[C@@H]2O[C@H](CO)[C@@H](O)[C@H](O)[C@H]2O[C@H]2C[C@](C)(N)[C@H](O)[C@H](C)O2)Oc2ccc(cc2Cl)[C@H]1O [VANCOMYCIN]
MBC [1]: 1 µg/mL (≈ 0.69 µM)
MBC [2]: 1 µg/mL (≈ 0.69 µM)
MBC [3]: 1 µg/mL (≈ 0.69 µM)
MBC [4]: 0.5 µg/mL (≈ 0.345 µM)
MBC [5]: 0.5 µg/mL (≈ 0.345 µM)
MBC [6]: 1 µg/mL (≈ 0.69 µM)
MBC [7]: 0.5 µg/mL (≈ 0.345 µM)
MBC [8]: 1 µg/mL (≈ 0.69 µM)
MBC [9]: 1 µg/mL (≈ 0.69 µM)
MBC [10]: 1 µg/mL (≈ 0.69 µM)
MBC [11]: 0.5 µg/mL (≈ 0.345 µM)
MBC [12]: 1 µg/mL (≈ 0.69 µM)
MBC [13]: 0.5 µg/mL (≈ 0.345 µM)
MBC [14]: 1 µg/mL (≈ 0.69 µM)
MBC [15]: 1 µg/mL (≈ 0.69 µM)
MBC [16]: 1 µg/mL (≈ 0.69 µM)
MBC [17]: 1 µg/mL (≈ 0.69 µM)
MBC [18]: 1 µg/mL (≈ 0.69 µM)
MBC [19]: 1 µg/mL (≈ 0.69 µM)
MBC [20]: 1 µg/mL (≈ 0.69 µM)
MBC [21]: 0.5 µg/mL (≈ 0.345 µM)

Compound: CCCCCCCCCCCCCCCC(=O)NCCCN
MIC [22]: > 1020 µg/mL
MIC [23]: > 1020 µg/mL
MIC [24]: 32 µg/mL (≈ 102 µM)
MIC [25]: 4 µg/mL (≈ 12.8 µM)
MBC [33]: 64 µg/mL (≈ 205 µM)
MIC [26]: 16 µg/mL (≈ 51.2 µM)
MIC [27]: 8 µg/mL (≈ 25.6 µM)
MIC [29]: 8 µg/mL (≈ 25.6 µM)
Activity [34]: Active
MIC [31]: 64 µg/mL (≈ 205 µM)

Compound: CCCCCCCCCCCCCC(=O)NCCN
MIC50 [36]: 32 µg/mL (≈ 118 µM)
MIC90 [36]: 256 µg/mL (≈ 947 µM)
MBC [1]: 64 µg/mL (≈ 237 µM)
MBC [2]: 128 µg/mL (≈ 473 µM)
MIC [22]: 8 µg/mL (≈ 29.6 µM)
MBC [3]: 512 µg/mL (≈ 1890 µM)
MBC [6]: 128 µg/mL (≈ 473 µM)
MIC [23]: 1020 µg/mL (≈ 3790 µM)
MBC [8]: 512 µg/mL (≈ 1890 µM)
MIC [24]: 64 µg/mL (≈ 237 µM)
MBC [37]: 128 µg/mL (≈ 473 µM)
MIC [25]: 16 µg/mL (≈ 59.2 µM)
MIC [26]: 16 µg/mL (≈ 59.2 µM)
MBC [10]: 512 µg/mL (≈ 1890 µM)
MBC [11]: 128 µg/mL (≈ 473 µM)
MBC [13]: 128 µg/mL (≈ 473 µM)
MIC [27]: 16 µg/mL (≈ 59.2 µM)
Activity [28]: Active
MBC [14]: 512 µg/mL (≈ 1890 µM)
MIC [29]: 32 µg/mL (≈ 118 µM)
MBC [15]: 512 µg/mL (≈ 1890 µM)
Activity [30]: Active
Activity [34]: Active
MIC [31]: 4 µg/mL (≈ 14.8 µM)
MBC [21]: 512 µg/mL (≈ 1890 µM)

Further lines, with some results ahead:

MIC [22]: > 1020 µg/mL
MIC [23]: 1020 µg/mL (≈ 3600 µM)
MIC [24]: > 1020 µg/mL
MIC [25]: 1020 µg/mL (≈ 3600 µM)
MIC [26]: 32 µg/mL (≈ 112 µM)
MIC [27]: 64 µg/mL (≈ 225 µM)
MIC [29]: 16 µg/mL (≈ 56.2 µM)
MIC [31]: 32 µg/mL (≈ 112 µM)
Compound: CCCCCCCCCCCCCC(=O)NCCCN
Activity [28]: Active
Activity [30]: Active

MIC [22]: > 1020 µg/mL
MIC [23]: > 1020 µg/mL
MIC [24]: > 1020 µg/mL
MIC [25]: > 1020 µg/mL
MIC [26]: 16 µg/mL (≈ 53.6 µM)
MIC [27]: 8 µg/mL (≈ 26.8 µM)
MIC [29]: 4 µg/mL (≈ 13.4 µM)
MIC [31]: 4 µg/mL (≈ 13.4 µM)
Compound: CCCCCCCCCCCCCCCC(=O)NCCN

MIC [22]: 16 µg/mL (≈ 45.4 µM)
MIC [23]: > 1020 µg/mL
MIC [24]: 8 µg/mL (≈ 22.7 µM)
MIC [25]: 4 µg/mL (≈ 11.3 µM)
MIC [26]: 4 µg/mL (≈ 11.3 µM)
MIC [27]: 2 µg/mL (≈ 5.67 µM)
MIC [29]: 1 µg/mL (≈ 2.84 µM)
MIC [31]: 2 µg/mL (≈ 5.67 µM)
Compound: CCCCCCCC/C=C\CCCCCCCC(=O)NCCCCN
Activity [32]: Active
MBC [33]: 128 µg/mL (≈ 363 µM)
Activity [28]: Active
Activity [34]: Active

MIC [22]: 512 µg/mL (≈ 1570 µM)
MIC [23]: > 1020 µg/mL
MIC [24]: 1020 µg/mL (≈ 3140 µM)
MIC [25]: 16 µg/mL (≈ 49 µM)
MIC [26]: 64 µg/mL (≈ 196 µM)
MIC [27]: 32 µg/mL (≈ 98 µM)
MIC [29]: 128 µg/mL (≈ 392 µM)
MIC [31]: 8 µg/mL (≈ 24.5 µM)
Compound: CCCCCCCCCCCCCCCC(=O)NCCCCN
Activity [32]: Active
MBC [33]: 128 µg/mL (≈ 392 µM)
MBC [35]: 1020 µg/mL (≈ 3140 µM)
